# Measured values from the supplement of paper PMC10307832.
# Experiments:
# Test in all cases: relative viability (nuclei count vs DMSO), 5 days (fraction); higher = more cells survive
# Dasatinib + Linsitinib = compound: Cc1nc(Nc2ncc(C(=O)Nc3c(C)cccc3Cl)s2)cc(N2CCN(CCO)CC2)n1 [Dasatinib] + C[C@]1(O)C[C@@H](c2nc(-c3ccc4ccc(-c5ccccc5)nc4c3)c3c(N)nccn32)C1 [Linsitinib] (partner 1 µM)
# Method in brief: (§1)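 Relative viability divides the nuclei count in treated wells by that in vehicle wells. Lung cancer cell lines were seeded in 1536-well plates, dosed by pin tool the next day, and fixed and stained after 5 days in one step with final 0.05% Triton X-100, 1% formaldehyde and 1 ug/ml Hoechst. Dosing was a single drug or a fixed anchor-drug dose plus five library-drug doses (not always all listed) in √10 steps, and values are medians of duplicate plates imaged at 4×.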
# Dasatinib + Pemetrexed = compound: Cc1nc(Nc2ncc(C(=O)Nc3c(C)cccc3Cl)s2)cc(N2CCN(CCO)CC2)n1 [Dasatinib] + Nc1nc2[nH]cc(CCc3ccc(C(=O)N[C@@H](CCC(=O)O)C(=O)O)cc3)c2c(=O)[nH]1 [Pemetrexed] (partner 0.2 µM)
# Method in brief: as §1
# ALW-II-49-7 + Foretinib = compound: Cc1ccc(C(=O)Nc2cccc(C(F)(F)F)c2)cc1Nc1cncc(C(N)=O)c1 [ALW-II-49-7] + COc1cc2c(Oc3ccc(NC(=O)C4(C(=O)Nc5ccc(F)cc5)CC4)cc3F)ccnc2cc1OCCCN1CCOCC1 [Foretinib] (partner 0.25 µM)
# Method in brief: as §1
# Dasatinib + Foretinib = compound: Cc1nc(Nc2ncc(C(=O)Nc3c(C)cccc3Cl)s2)cc(N2CCN(CCO)CC2)n1 [Dasatinib] + COc1cc2c(Oc3ccc(NC(=O)C4(C(=O)Nc5ccc(F)cc5)CC4)cc3F)ccnc2cc1OCCCN1CCOCC1 [Foretinib] (partner 0.25 µM)
# Method in brief: as §1
Cell Line,relative viability (Dasatinib + Linsitinib; first compound 0.005 µM),relative viability (Dasatinib + Linsitinib; first compound 0.01581 µM),relative viability (Dasatinib + Linsitinib; first compound 0.05 µM),relative viability (Dasatinib + Linsitinib; first compound 0.1581 µM),relative viability (Dasatinib + Linsitinib; first compound 0.5 µM),relative viability (Dasatinib + Pemetrexed; first compound 0.005 µM),relative viability (Dasatinib + Pemetrexed; first compound 0.01581 µM),relative viability (Dasatinib + Pemetrexed; first compound 0.05 µM),relative viability (Dasatinib + Pemetrexed; first compound 0.1581 µM),relative viability (Dasatinib + Pemetrexed; first compound 0.5 µM),relative viability (ALW-II-49-7 + Foretinib; first compound 0.08 µM),relative viability (ALW-II-49-7 + Foretinib; first compound 0.253 µM),relative viability (ALW-II-49-7 + Foretinib; first compound 0.8 µM),relative viability (ALW-II-49-7 + Foretinib; first compound 2.53 µM),relative viability (ALW-II-49-7 + Foretinib; first compound 8 µM),relative viability (Dasatinib + Foretinib; first compound 0.005 µM),relative viability (Dasatinib + Foretinib; first compound 0.01581 µM),relative viability (Dasatinib + Foretinib; first compound 0.05 µM),relative viability (Dasatinib + Foretinib; first compound 0.1581 µM),relative viability (Dasatinib + Foretinib; first compound 0.5 µM)
NCI-H1395,1.24,1.05,0.887,0.451,0.343,0.987,1.01,0.603,0.369,0.368,1.09,1.03,1,1.03,0.943,1,1.08,1.04,0.585,0.331
LC-2-ad,0.685,0.702,0.6,0.26,0.176,0.262,0.253,0.256,0.237,0.214,0.863,0.881,0.929,0.559,0.905,1.04,0.802,0.473,0.369,0.293
NCI-H838,0.832,0.628,0.573,0.243,0.221,0.26,0.241,0.218,0.176,0.214,0.988,1.12,1.04,1.12,1.24,0.679,0.654,0.552,0.313,0.236
Calu-6,0.764,0.811,0.694,0.561,0.424,,,,,,0.914,0.832,0.912,0.832,0.805,0.738,0.702,0.633,0.513,0.469
NCI-H1648,,,,,,0.454,0.716,0.936,0.699,0.239,,,,,,,,,,
LCLC-97TM1,0.17,0.203,0.2,0.163,0.129,0.195,0.184,0.177,0.182,0.143,0.869,0.894,1.06,0.939,0.933,0.968,0.955,1.04,0.78,0.461
HCC-15,0.862,0.773,0.766,0.599,0.555,0.198,0.207,0.209,0.203,0.205,1.08,1.1,1.03,0.96,1,1.09,0.919,0.876,0.719,0.57
CAL-12T,0.848,0.853,0.853,0.46,0.286,1.23,1.2,1.27,0.929,0.479,1.11,1.14,1.19,1.07,0.843,1.18,1.04,1.23,0.66,0.532
